Experimental findings from the supplement of paper PMC10307832 are described below.

Holding throughout (assay): relative viability (nuclei count vs DMSO), 5 days (fraction); higher = more cells survive
Compound in the experiment “Decitabine + Crizotinib”: Nc1ncn([C@H]2C[C@H](O)[C@@H](CO)O2)c(=O)n1 [Decitabine] + C[C@@H](Oc1cc(-c2cnn(C3CCNCC3)c2)cnc1N)c1c(Cl)ccc(F)c1Cl [Crizotinib] (partner 1 µM)
An outline of the steps:
(§1)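 Relative viability equals treated-well nuclei counts divided by vehicle-well nuclei counts. Counts came from 4× images of lung cancer cell lines grown in 1536-well plates for 5 days after pin-tool dosing on the day after seeding. Dosing used one drug alone or a fixed anchor-drug dose plus five library-drug doses (not always all listed) in √10 steps, and values are medians of duplicate plates.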

Compound in the experiment “Halofuginone + Foretinib”: O=C(C[C@H]1NCCC[C@@H]1O)Cn1cnc2cc(Br)c(Cl)cc2c1=O (racemic) [Halofuginone] + COc1cc2c(Oc3ccc(NC(=O)C4(C(=O)Nc5ccc(F)cc5)CC4)cc3F)ccnc2cc1OCCCN1CCOCC1 [Foretinib] (partner 0.25 µM)
An outline of the steps:
as §1

Compound in experiment [1]: O=C(C[C@H]1NCCC[C@@H]1O)Cn1cnc2cc(Br)c(Cl)cc2c1=O (racemic) [Halofuginone] + N=C(N)NC(=N)NCCc1ccccc1 [Phenformin] (partner 250 µM)
An outline of the steps: as §1

Compound in the experiment “Halofuginone + Dasatinib”: O=C(C[C@H]1NCCC[C@@H]1O)Cn1cnc2cc(Br)c(Cl)cc2c1=O (racemic) [Halofuginone] + Cc1nc(Nc2ncc(C(=O)Nc3c(C)cccc3Cl)s2)cc(N2CCN(CCO)CC2)n1 [Dasatinib] (partner 0.075 µM)
An outline of the steps:
as §1

HARA: the relative viability with Decitabine + Crizotinib (first compound 0.04 µM) amounted to 0.774; with Decitabine + Crizotinib (first compound 0.1265 µM) it was 0.745; in the experiment with Decitabine + Crizotinib (first compound 0.4 µM), 0.63; in the experiment with Decitabine + Crizotinib (first compound 1.265 µM), 0.379; with Decitabine + Crizotinib (first compound 4 µM), 0.352; with Halofuginone + Foretinib (first compound 0.001 µM), 0.997. The relative viability in the experiment with Halofuginone + Foretinib (first compound 0.003162 µM) came out at 0.954; in the experiment with Halofuginone + Foretinib (first compound 0.01 µM), 0.934; with Halofuginone + Foretinib (first compound 0.03162 µM), 0.896; in the experiment with Halofuginone + Foretinib (first compound 0.1 µM), 0.493; in experiment [1] (first compound 0.001 µM), 0.486; in experiment [1] (first compound 0.003162 µM), 0.465. Further, the relative viability came to 0.487 in experiment [1] (first compound 0.01 µM); 0.48 in experiment [1] (first compound 0.03162 µM); 0.363 in experiment [1] (first compound 0.1 µM); 0.273 with Halofuginone + Dasatinib (first compound 0.001 µM); 0.225 with Halofuginone + Dasatinib (first compound 0.003162 µM); 0.304 with Halofuginone + Dasatinib (first compound 0.01 µM). In addition, the relative viability in the experiment with Halofuginone + Dasatinib (first compound 0.03162 µM) worked out at 0.276; with Halofuginone + Dasatinib (first compound 0.1 µM) it was 0.191.

As for HCC-15, the relative viability was 0.705 with Decitabine + Crizotinib (first compound 0.04 µM); 0.643 in the experiment with Decitabine + Crizotinib (first compound 0.1265 µM); 0.333 with Decitabine + Crizotinib (first compound 0.4 µM); 0.412 with Decitabine + Crizotinib (first compound 1.265 µM); 0.355 in the experiment with Decitabine + Crizotinib (first compound 4 µM); 1.02 with Halofuginone + Foretinib (first compound 0.001 µM). In addition, the relative viability with Halofuginone + Foretinib (first compound 0.003162 µM) turned out to be 1.1; in the experiment with Halofuginone + Foretinib (first compound 0.01 µM), 1.05; with Halofuginone + Foretinib (first compound 0.03162 µM), 0.967; with Halofuginone + Foretinib (first compound 0.1 µM), 0.787; in experiment [1] (first compound 0.001 µM) it was 0.471; in experiment [1] (first compound 0.003162 µM) it was 0.534. In addition, the relative viability in experiment [1] (first compound 0.01 µM) amounted to 0.46; in experiment [1] (first compound 0.03162 µM), 0.467; in experiment [1] (first compound 0.1 µM) it was 0.429; with Halofuginone + Dasatinib (first compound 0.001 µM), 0.645; with Halofuginone + Dasatinib (first compound 0.003162 µM), 0.677; with Halofuginone + Dasatinib (first compound 0.01 µM), 0.572. The relative viability in the experiment with Halofuginone + Dasatinib (first compound 0.03162 µM) was found to be 0.593; with Halofuginone + Dasatinib (first compound 0.1 µM), 0.322.

With HCC-44, the relative viability with Decitabine + Crizotinib (first compound 0.04 µM) was determined as 0.641; with Decitabine + Crizotinib (first compound 0.1265 µM) it was 0.72; in the experiment with Decitabine + Crizotinib (first compound 0.4 µM) it was 0.28; with Decitabine + Crizotinib (first compound 1.265 µM), 0.449; in the experiment with Decitabine + Crizotinib (first compound 4 µM) it was 0.374; in experiment [1] (first compound 0.001 µM), 0.23. Also, the relative viability in experiment [1] (first compound 0.003162 µM) was determined as 0.222; in experiment [1] (first compound 0.01 µM), 0.196; in experiment [1] (first compound 0.03162 µM), 0.178; in experiment [1] (first compound 0.1 µM), 0.13.

With HCC-78, the relative viability was 0.354 with Decitabine + Crizotinib (first compound 0.04 µM); 0.382 in the experiment with Decitabine + Crizotinib (first compound 0.1265 µM); 0.395 in the experiment with Decitabine + Crizotinib (first compound 0.4 µM); 0.272 in the experiment with Decitabine + Crizotinib (first compound 1.265 µM); 0.255 with Decitabine + Crizotinib (first compound 4 µM); 0.593 with Halofuginone + Foretinib (first compound 0.001 µM). Moreover, the relative viability with Halofuginone + Foretinib (first compound 0.003162 µM) was 0.635; with Halofuginone + Foretinib (first compound 0.01 µM), 0.488; with Halofuginone + Foretinib (first compound 0.03162 µM) it was 0.684; in the experiment with Halofuginone + Foretinib (first compound 0.1 µM) it was 0.552; in experiment [1] (first compound 0.001 µM), 0.7; in experiment [1] (first compound 0.003162 µM), 0.667. For the same cell line, the relative viability in experiment [1] (first compound 0.01 µM) stood at 0.697; in experiment [1] (first compound 0.03162 µM) it was 0.739; in experiment [1] (first compound 0.1 µM), 0.623; with Halofuginone + Dasatinib (first compound 0.001 µM) it was 0.44; in the experiment with Halofuginone + Dasatinib (first compound 0.003162 µM), 0.364; with Halofuginone + Dasatinib (first compound 0.01 µM), 0.357. Further, the relative viability with Halofuginone + Dasatinib (first compound 0.03162 µM) turned out to be 0.4; with Halofuginone + Dasatinib (first compound 0.1 µM), 0.503.

Regarding HCC-366, the relative viability with Decitabine + Crizotinib (first compound 0.04 µM) was found to be 0.237; in the experiment with Decitabine + Crizotinib (first compound 0.1265 µM) it was 0.362; with Decitabine + Crizotinib (first compound 0.4 µM), 0.121; in the experiment with Decitabine + Crizotinib (first compound 1.265 µM) it was 0.102; with Decitabine + Crizotinib (first compound 4 µM), 0.0419; in the experiment with Halofuginone + Foretinib (first compound 0.001 µM), 0.952. Moreover, the relative viability with Halofuginone + Foretinib (first compound 0.003162 µM) came out at 0.973; with Halofuginone + Foretinib (first compound 0.01 µM) it was 0.876; with Halofuginone + Foretinib (first compound 0.03162 µM) it was 1.02; in the experiment with Halofuginone + Foretinib (first compound 0.1 µM), 0.514; in experiment [1] (first compound 0.001 µM), 0.723; in experiment [1] (first compound 0.003162 µM), 0.633. Moreover, the relative viability was 0.646 in experiment [1] (first compound 0.01 µM); 0.581 in experiment [1] (first compound 0.03162 µM); 0.458 in experiment [1] (first compound 0.1 µM); 0.709 in the experiment with Halofuginone + Dasatinib (first compound 0.001 µM); 0.804 in the experiment with Halofuginone + Dasatinib (first compound 0.003162 µM); 0.684 with Halofuginone + Dasatinib (first compound 0.01 µM). The relative viability with Halofuginone + Dasatinib (first compound 0.03162 µM) came to 0.66; with Halofuginone + Dasatinib (first compound 0.1 µM), 0.414.

On to HCC-827, for which the relative viability came to 0.396 in the experiment with Decitabine + Crizotinib (first compound 0.1265 µM); 0.355 in the experiment with Decitabine + Crizotinib (first compound 0.4 µM); 0.262 with Decitabine + Crizotinib (first compound 1.265 µM); 0.272 with Decitabine + Crizotinib (first compound 4 µM); 1.03 with Halofuginone + Foretinib (first compound 0.001 µM); 0.974 with Halofuginone + Foretinib (first compound 0.003162 µM). The relative viability is 0.962 with Halofuginone + Foretinib (first compound 0.01 µM); 1.1 in the experiment with Halofuginone + Foretinib (first compound 0.03162 µM); 0.947 in the experiment with Halofuginone + Foretinib (first compound 0.1 µM); 0.407 in experiment [1] (first compound 0.001 µM); 0.426 in experiment [1] (first compound 0.003162 µM); 0.373 in experiment [1] (first compound 0.01 µM). Moreover, the relative viability in experiment [1] (first compound 0.03162 µM) turned out to be 0.434; in experiment [1] (first compound 0.1 µM), 0.38; with Halofuginone + Dasatinib (first compound 0.001 µM) it was 0.249; with Halofuginone + Dasatinib (first compound 0.003162 µM), 0.415; in the experiment with Halofuginone + Dasatinib (first compound 0.01 µM), 0.31; with Halofuginone + Dasatinib (first compound 0.03162 µM), 0.493. For the same cell line, the relative viability with Halofuginone + Dasatinib (first compound 0.1 µM) stood at 0.359.

In the case of HOP-62, the relative viability in the experiment with Decitabine + Crizotinib (first compound 0.04 µM) worked out at 0.421; in the experiment with Decitabine + Crizotinib (first compound 0.1265 µM), 0.318; with Decitabine + Crizotinib (first compound 0.4 µM), 0.149; with Decitabine + Crizotinib (first compound 1.265 µM), 0.117; with Decitabine + Crizotinib (first compound 4 µM) it was 0.133; with Halofuginone + Foretinib (first compound 0.001 µM), 1.09. In addition, the relative viability was found to be 1.22 with Halofuginone + Foretinib (first compound 0.003162 µM); 1.02 with Halofuginone + Foretinib (first compound 0.01 µM); 0.96 with Halofuginone + Foretinib (first compound 0.03162 µM); 0.704 in the experiment with Halofuginone + Foretinib (first compound 0.1 µM); 0.663 in experiment [1] (first compound 0.001 µM); 0.707 in experiment [1] (first compound 0.003162 µM). Moreover, the relative viability in experiment [1] (first compound 0.01 µM) was found to be 0.676; in experiment [1] (first compound 0.03162 µM), 0.634; in experiment [1] (first compound 0.1 µM), 0.603; with Halofuginone + Dasatinib (first compound 0.001 µM), 0.641; in the experiment with Halofuginone + Dasatinib (first compound 0.003162 µM) it was 0.75; in the experiment with Halofuginone + Dasatinib (first compound 0.01 µM) it was 0.737. Moreover, the relative viability with Halofuginone + Dasatinib (first compound 0.03162 µM) is 0.545; with Halofuginone + Dasatinib (first compound 0.1 µM), 0.369.
